# Reference: paper PMC10008561 (Nature Communications, 2023)
# Assays:
# Test in all cases: cell-based
# [1] = target: T1, human KOR (β-arrestin 2) (Homo sapiens, UniProt P41145, D334A); conditions: HEK-293T
# T1 construct: expressed in transfected cells; host or cells: HEK293T
# [2] = target: T2, human KOR (β-arrestin 2) (Homo sapiens, UniProt P41145, D266A); conditions: HEK-293T
# T2 construct: expressed in transfected cells; host or cells: HEK293T
# [3] = target: T3, human KOR (β-arrestin 2) (Homo sapiens, UniProt P41145, K200A); conditions: HEK-293T
# T3 construct: expressed in transfected cells; host or cells: HEK293T
# T3 sequence (P41145 whole entry K200A): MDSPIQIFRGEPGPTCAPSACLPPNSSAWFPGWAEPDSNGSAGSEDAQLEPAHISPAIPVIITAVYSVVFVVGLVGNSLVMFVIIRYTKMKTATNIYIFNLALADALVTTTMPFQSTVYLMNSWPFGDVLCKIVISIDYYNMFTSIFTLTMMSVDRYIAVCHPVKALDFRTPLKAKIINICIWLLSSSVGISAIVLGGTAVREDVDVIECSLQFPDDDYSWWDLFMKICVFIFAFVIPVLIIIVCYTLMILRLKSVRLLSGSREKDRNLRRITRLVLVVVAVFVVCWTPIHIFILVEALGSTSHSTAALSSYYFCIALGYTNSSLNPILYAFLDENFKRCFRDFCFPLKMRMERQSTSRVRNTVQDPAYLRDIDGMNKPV
# [4] = target: T4, human KOR (β-arrestin 2) (Homo sapiens, UniProt P41145, E297A); conditions: HEK-293T
# T4 construct: expressed in transfected cells; host or cells: HEK293T
# T4 sequence (P41145 whole entry E297A): as the sequence (P41145 whole entry K200A) above, with A200K, E297A counted along it
# [5] = target: T5, human KOR (β-arrestin 2) (Homo sapiens, UniProt P41145, Y139L); conditions: HEK-293T
# T5 construct: expressed in transfected cells; host or cells: HEK293T
# T5 sequence (P41145 whole entry Y139L): as the sequence (P41145 whole entry K200A) above, with Y139L, A200K counted along it
# [6] = target: T6, human KOR (β-arrestin 2) (Homo sapiens, UniProt P41145, N322A); conditions: HEK-293T
# T6 construct: expressed in transfected cells; host or cells: HEK293T
# T6 sequence (P41145 whole entry N322A): as the sequence (P41145 whole entry K200A) above, with A200K, N322A counted along it
# [7] = target: T7, human KOR (β-arrestin 2) (Homo sapiens, UniProt P41145, G319L); conditions: HEK-293T
# T7 construct: expressed in transfected cells; host or cells: HEK293T
# T7 sequence (P41145 whole entry G319L): as the sequence (P41145 whole entry K200A) above, with A200K, G319L counted along it
# [8] = target: T8, human KOR (β-arrestin 2) (Homo sapiens, UniProt P41145)
# T8 construct: expressed in transfected cells; host or cells: HEK293T
# T8 sequence (P41145 whole entry): as the sequence (P41145 whole entry K200A) above, with A200K counted along it
# [9] = target: T9, human KOR (β-arrestin 2) (Homo sapiens, UniProt P41145, N141A); conditions: HEK-293T
# T9 construct: expressed in transfected cells; host or cells: HEK293T
# T9 sequence (P41145 whole entry N141A): as the sequence (P41145 whole entry K200A) above, with N141A, A200K counted along it
# [10] = target: T10, human KOR (β-arrestin 2) (Homo sapiens, UniProt P41145, F114L); conditions: HEK-293T
# T10 construct: expressed in transfected cells; host or cells: HEK293T
# T10 sequence (P41145 whole entry F114L): as the sequence (P41145 whole entry K200A) above, with F114L, A200K counted along it
# [11] = target: T11, human KOR (β-arrestin 2) (Homo sapiens, UniProt P41145, T94V); conditions: HEK-293T
# T11 construct: expressed in transfected cells; host or cells: HEK293T
# T11 sequence (P41145 whole entry T94V): as the sequence (P41145 whole entry K200A) above, with T94V, A200K counted along it
# [12] = target: T12, human KOR (β-arrestin 2) (Homo sapiens, UniProt P41145, R170A); conditions: HEK-293T
# T12 construct: expressed in transfected cells; host or cells: HEK293T
# T12 sequence (P41145 whole entry R170A): as the sequence (P41145 whole entry K200A) above, with R170A, A200K counted along it
# [13] = target: T13, human KOR (β-arrestin 2) (Homo sapiens, UniProt P41145, Y320L); conditions: HEK-293T
# T13 construct: expressed in transfected cells; host or cells: HEK293T
# T13 sequence (P41145 whole entry Y320L): as the sequence (P41145 whole entry K200A) above, with A200K, Y320L counted along it
# [14] = target: T14, human KOR (β-arrestin 2) (Homo sapiens, UniProt P41145, R274A); conditions: HEK-293T
# T14 construct: expressed in transfected cells; host or cells: HEK293T
# T14 sequence (P41145 whole entry R274A): as the sequence (P41145 whole entry K200A) above, with A200K, R274A counted along it
# [15] = target: T15, human KOR (β-arrestin 2) (Homo sapiens, UniProt P41145, L253A); conditions: HEK-293T
# T15 construct: expressed in transfected cells; host or cells: HEK293T
# T15 sequence (P41145 whole entry L253A): as the sequence (P41145 whole entry K200A) above, with A200K, L253A counted along it
# [16] = target: T16, human KOR (β-arrestin 2) (Homo sapiens, UniProt P41145, R271A); conditions: HEK-293T
# T16 construct: expressed in transfected cells; host or cells: HEK293T
# T16 sequence (P41145 whole entry R271A): as the sequence (P41145 whole entry K200A) above, with A200K, R271A counted along it
# [17] = target: T17, human KOR (β-arrestin 2) (Homo sapiens, UniProt P41145, F283A); conditions: HEK-293T
# T17 construct: expressed in transfected cells; host or cells: HEK293T
# T17 sequence (P41145 whole entry F283A): as the sequence (P41145 whole entry K200A) above, with A200K, F283A counted along it
# [18] = target: T18, human KOR (β-arrestin 2) (Homo sapiens, UniProt P41145, R257A); conditions: HEK-293T
# T18 construct: expressed in transfected cells; host or cells: HEK293T
# T18 sequence (P41145 whole entry R257A): as the sequence (P41145 whole entry K200A) above, with A200K, R257A counted along it
# [19] = target: T19, human KOR (β-arrestin 2) (Homo sapiens, UniProt P41145, Q115N); conditions: HEK-293T
# T19 construct: expressed in transfected cells; host or cells: HEK293T
# T19 sequence (P41145 whole entry Q115N): as the sequence (P41145 whole entry K200A) above, with Q115N, A200K counted along it
# [20] = target: T20, human KOR (β-arrestin 2) (Homo sapiens, UniProt P41145, K227A); conditions: HEK-293T
# T20 construct: expressed in transfected cells; host or cells: HEK293T
# T20 sequence (P41145 whole entry K227A): as the sequence (P41145 whole entry K200A) above, with A200K, K227A counted along it
# [21] = target: T21, human KOR (β-arrestin 2) (Homo sapiens, UniProt P41145, D155A); conditions: HEK-293T
# T21 construct: expressed in transfected cells; host or cells: HEK293T
# T21 sequence (P41145 whole entry D155A): as the sequence (P41145 whole entry K200A) above, with D155A, A200K counted along it
# [22] = target: T22, human KOR (Gi1) (Homo sapiens, UniProt P41145, N326A); conditions: HEK-293T
# T22 construct: expressed in transfected cells; host or cells: HEK293T
# T22 sequence (P41145 whole entry N326A): as the sequence (P41145 whole entry K200A) above, with A200K, N326A counted along it
# [23] = target: T23, human KOR (Gi1) (Homo sapiens, UniProt P41145, Y320L); conditions: HEK-293T
# T23 construct: expressed in transfected cells; host or cells: HEK293T
# T23 sequence (P41145 whole entry Y320L): as the sequence (P41145 whole entry K200A) above, with A200K, Y320L counted along it
# [24] = target: T24, human KOR (Gi1) (Homo sapiens, UniProt P41145, R257A); conditions: HEK-293T
# T24 construct: expressed in transfected cells; host or cells: HEK293T
# T24 sequence (P41145 whole entry R257A): as the sequence (P41145 whole entry K200A) above, with A200K, R257A counted along it
# [25] = target: T25, human KOR (Gi1) (Homo sapiens, UniProt P41145, L253A); conditions: HEK-293T
# T25 construct: expressed in transfected cells; host or cells: HEK293T
# T25 sequence (P41145 whole entry L253A): as the sequence (P41145 whole entry K200A) above, with A200K, L253A counted along it
# [26] = target: T26, human KOR (Gi1) (Homo sapiens, UniProt P41145, R170A); conditions: HEK-293T
# T26 construct: expressed in transfected cells; host or cells: HEK293T
# T26 sequence (P41145 whole entry R170A): as the sequence (P41145 whole entry K200A) above, with R170A, A200K counted along it
# [27] = target: T27, human KOR (Gi2) (Homo sapiens, UniProt P41145, F283A)
# T27 construct: expressed in transfected cells; host or cells: HEK293T
# T27 sequence (P41145 whole entry F283A): as the sequence (P41145 whole entry K200A) above, with A200K, F283A counted along it
# [28] = target: T28, human KOR (Gi2) (Homo sapiens, UniProt P41145, D266A)
# T28 construct: expressed in transfected cells; host or cells: HEK293T
# T28 sequence (P41145 whole entry D266A): as the sequence (P41145 whole entry K200A) above, with A200K, D266A counted along it
# [29] = target: T29, human KOR (Gi2) (Homo sapiens, UniProt P41145, E297A)
# T29 construct: expressed in transfected cells; host or cells: HEK293T
# T29 sequence (P41145 whole entry E297A): as the sequence (P41145 whole entry K200A) above, with A200K, E297A counted along it
# [30] = target: T30, human KOR (Gi2) (Homo sapiens, UniProt P41145, R271A)
# T30 construct: expressed in transfected cells; host or cells: HEK293T
# T30 sequence (P41145 whole entry R271A): as the sequence (P41145 whole entry K200A) above, with A200K, R271A counted along it
# [31] = target: T31, human KOR (Gi2) (Homo sapiens, UniProt P41145, R170A); conditions: HEK-293T
# T31 construct: expressed in transfected cells; host or cells: HEK293T
# T31 sequence (P41145 whole entry R170A): as the sequence (P41145 whole entry K200A) above, with R170A, A200K counted along it
# [32] = target: T32, human KOR (Gi2) (Homo sapiens, UniProt P41145, G319L)
# T32 construct: expressed in transfected cells; host or cells: HEK293T
# T32 sequence (P41145 whole entry G319L): as the sequence (P41145 whole entry K200A) above, with A200K, G319L counted along it
# [33] = target: T33, human KOR (Gi2) (Homo sapiens, UniProt P41145, D334A)
# T33 construct: expressed in transfected cells; host or cells: HEK293T
# T33 sequence (P41145 whole entry D334A): as the sequence (P41145 whole entry K200A) above, with A200K, D334A counted along it
# [34] = target: T34, human KOR (Gi2) (Homo sapiens, UniProt P41145, K227A)
# T34 construct: expressed in transfected cells; host or cells: HEK293T
# T34 sequence (P41145 whole entry K227A): as the sequence (P41145 whole entry K200A) above, with A200K, K227A counted along it
# [35] = target: T35, human KOR (Gi2) (Homo sapiens, UniProt P41145, Q115N)
# T35 construct: expressed in transfected cells; host or cells: HEK293T
# T35 sequence (P41145 whole entry Q115N): as the sequence (P41145 whole entry K200A) above, with Q115N, A200K counted along it
# [36] = target: T36, human KOR (Gi2) (Homo sapiens, UniProt P41145, N322A)
# T36 construct: expressed in transfected cells; host or cells: HEK293T
# T36 sequence (P41145 whole entry N322A): as the sequence (P41145 whole entry K200A) above, with A200K, N322A counted along it
# T1 sequence (P41145 whole entry D334A): as the sequence (P41145 whole entry K200A) above, with A200K, D334A counted along it
# T2 sequence (P41145 whole entry D266A): as the sequence (P41145 whole entry K200A) above, with A200K, D266A counted along it
smiles,measurement,setting,value
"CN(C(=O)/C=C/c1ccoc1)[C@@H]1CC[C@@]2(O)[C@H]3Cc4ccc(O)c5c4[C@@]2(CCN3CC2CC2)[C@H]1O5 [Nalfurafine, nalfurafine]",Emax,[1],78%
same,Emax,[2],101%
same,Emax,[3],83.2%
same,Emax,[4],101%
same,Emax,[5],113%
same,Emax,[6],87.1%
same,Emax,[7],71%
same,Emax%,[8],80%
same,Emax,[8]; HEK-293T,100 ± 4%
same,Emax,[9],90.6%
same,Emax,[10],48.7%
same,Emax,[11],87.5%
same,Emax,[12],100 ± 8.6%
same,Emax,[13],65.9%
same,Emax,[14],83.3%
same,Emax,[15],107%
same,Emax,[16],101 ± 8.2%
same,Emax,[17],100%
same,Emax,[18],103%
same,Emax,[19],67%
same,Emax,[20],97.5%
same,Emax,[21],90.2%
same,Emax,[22],108%
same,Emax,[23],76.3%
same,Emax,[24],99.5%
same,Emax,[25],106%
same,Emax,[26],58.7%
same,FC vs wild type,[27],7
same,Emax,[27]; HEK-293T,79%
same,FC vs wild type,[28],110
same,Emax,[28]; HEK-293T,107%
same,FC vs wild type,[29],2
same,Emax,[29]; HEK-293T,106%
same,FC vs wild type,[30],112
same,Emax,[30]; HEK-293T,106%
same,Emax,[31],57.6%
same,FC vs wild type,[32],17
same,Emax,[32]; HEK-293T,116%
same,FC vs wild type,[33],269
same,Emax,[33]; HEK-293T,86.1%
same,FC vs wild type,[34],1
same,Emax,[34]; HEK-293T,101%
same,FC vs wild type,[35],24
same,Emax,[35]; HEK-293T,60%
same,FC vs wild type,[36],178
same,Emax,[36]; HEK-293T,77.2%
